pIC50: −log10 of the molar value.
Key:
Format in all cases: biochemical
Flt-1 = target: T1, Flt-1 (Homo sapiens, UniProt P17948); assay: Kinase inhibition assay (33P transfer), Flt-1
T1 construct: Kinases are expressed as either kinase domains or full length constructs; made in house
Method in brief: (§1)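 Using immobilised substrate copolymers (poly(Glu,Tyr) 4:1; poly(Arg,Ser) 3:1) and [33P]ATP, purified fusion kinases were allowed to react; plates were then rinsed in 0.5% phosphoric acid and counted in a scintillation detector. Half-maximal inhibition of label transfer defines IC50.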

Tek = target: T2, Tek (Homo sapiens, UniProt Q02763); assay: Kinase inhibition assay (33P transfer), Tek; conditions: read-out: Tek-1
T2 construct: Kinases are expressed as either kinase domains or full length constructs; made in house
T2 sequence (Q02763 23-1124, species assumed): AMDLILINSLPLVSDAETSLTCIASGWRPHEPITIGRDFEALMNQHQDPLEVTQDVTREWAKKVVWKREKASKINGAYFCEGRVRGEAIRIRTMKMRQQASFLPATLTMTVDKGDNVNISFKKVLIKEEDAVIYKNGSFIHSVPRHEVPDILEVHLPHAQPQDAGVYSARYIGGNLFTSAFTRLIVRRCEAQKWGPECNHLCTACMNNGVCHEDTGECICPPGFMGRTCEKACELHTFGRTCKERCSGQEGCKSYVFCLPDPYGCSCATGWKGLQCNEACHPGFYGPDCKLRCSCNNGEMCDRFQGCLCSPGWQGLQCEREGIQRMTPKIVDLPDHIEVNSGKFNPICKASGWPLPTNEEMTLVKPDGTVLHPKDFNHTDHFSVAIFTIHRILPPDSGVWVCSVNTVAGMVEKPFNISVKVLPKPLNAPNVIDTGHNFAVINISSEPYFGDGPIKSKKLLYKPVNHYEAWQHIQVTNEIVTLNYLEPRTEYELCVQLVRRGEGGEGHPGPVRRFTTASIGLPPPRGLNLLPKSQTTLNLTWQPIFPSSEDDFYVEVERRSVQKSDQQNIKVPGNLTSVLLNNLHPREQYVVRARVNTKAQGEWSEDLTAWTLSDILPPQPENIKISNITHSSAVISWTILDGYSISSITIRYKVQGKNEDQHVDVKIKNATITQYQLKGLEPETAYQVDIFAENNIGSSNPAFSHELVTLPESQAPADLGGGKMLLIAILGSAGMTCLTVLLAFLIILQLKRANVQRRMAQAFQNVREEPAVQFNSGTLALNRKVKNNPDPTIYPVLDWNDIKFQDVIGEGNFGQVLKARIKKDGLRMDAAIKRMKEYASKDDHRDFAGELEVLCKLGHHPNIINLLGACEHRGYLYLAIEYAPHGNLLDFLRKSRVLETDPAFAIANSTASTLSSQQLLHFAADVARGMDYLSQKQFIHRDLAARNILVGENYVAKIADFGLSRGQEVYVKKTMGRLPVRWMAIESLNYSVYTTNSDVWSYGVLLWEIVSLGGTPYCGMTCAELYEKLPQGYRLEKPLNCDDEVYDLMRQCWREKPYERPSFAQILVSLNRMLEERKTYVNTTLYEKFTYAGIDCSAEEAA
Method in brief: as §1

Itk = target: T3, Itk (Homo sapiens, UniProt Q08881); assay: Kinase inhibition assay (33P transfer), Itk; conditions: Table 3; read-out: Itk-1
T3 construct: Kinases are expressed as either kinase domains or full length constructs; made in house
T3 sequence (Q08881 1-620): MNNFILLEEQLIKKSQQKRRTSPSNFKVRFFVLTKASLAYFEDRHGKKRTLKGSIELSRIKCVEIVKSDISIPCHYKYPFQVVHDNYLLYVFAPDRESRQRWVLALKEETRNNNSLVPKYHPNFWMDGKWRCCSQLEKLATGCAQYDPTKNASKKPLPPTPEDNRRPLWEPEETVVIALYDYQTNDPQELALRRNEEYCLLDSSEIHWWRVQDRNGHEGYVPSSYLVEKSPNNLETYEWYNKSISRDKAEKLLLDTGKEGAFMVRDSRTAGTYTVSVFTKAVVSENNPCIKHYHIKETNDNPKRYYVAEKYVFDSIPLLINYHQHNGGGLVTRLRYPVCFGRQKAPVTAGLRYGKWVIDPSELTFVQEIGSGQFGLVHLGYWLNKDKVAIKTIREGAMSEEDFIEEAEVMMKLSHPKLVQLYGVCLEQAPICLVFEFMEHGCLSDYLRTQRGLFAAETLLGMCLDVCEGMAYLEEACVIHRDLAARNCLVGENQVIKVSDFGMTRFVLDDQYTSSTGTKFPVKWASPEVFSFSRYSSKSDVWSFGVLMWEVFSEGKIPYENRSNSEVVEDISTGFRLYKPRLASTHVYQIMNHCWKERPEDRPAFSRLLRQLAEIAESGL
Method in brief: as §1

Lyn = target: T4, Lyn (Homo sapiens, UniProt P07948); assay: Kinase inhibition assay (33P transfer), Lyn; conditions: Table 6, Lyn-1 kinase inhibition class
T4 construct: Kinases are expressed as either kinase domains or full length constructs; made in house
T4 sequence (P07948 whole entry, species assumed, the tested form may be a part): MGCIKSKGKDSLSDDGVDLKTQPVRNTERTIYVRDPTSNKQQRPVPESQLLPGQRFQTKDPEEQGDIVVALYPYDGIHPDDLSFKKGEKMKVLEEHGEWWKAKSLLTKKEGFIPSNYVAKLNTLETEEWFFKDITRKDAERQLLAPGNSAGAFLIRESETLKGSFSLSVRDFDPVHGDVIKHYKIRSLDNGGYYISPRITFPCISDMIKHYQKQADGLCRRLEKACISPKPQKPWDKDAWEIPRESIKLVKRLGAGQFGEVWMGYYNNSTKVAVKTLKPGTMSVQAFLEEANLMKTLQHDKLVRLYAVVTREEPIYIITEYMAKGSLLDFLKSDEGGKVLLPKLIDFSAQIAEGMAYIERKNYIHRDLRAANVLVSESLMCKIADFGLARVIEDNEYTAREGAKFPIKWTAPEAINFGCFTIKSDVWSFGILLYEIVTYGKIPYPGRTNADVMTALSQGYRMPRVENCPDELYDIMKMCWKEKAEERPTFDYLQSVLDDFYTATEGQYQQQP
Method in brief: as §1

FGFR1 = target: T5, FGFR1 (Homo sapiens, UniProt P11362); assay: Kinase inhibition assay (33P transfer), FGFR1; conditions: read-out: FGFR1-1
T5 construct: Kinases are expressed as either kinase domains or full length constructs; made in house

c-Met = target: T6, c-Met (Homo sapiens, UniProt P08581); assay: Kinase inhibition assay (33P transfer), c-Met; conditions: Table 2, kinase inhibition class; read-out: Met-1
T6 construct: Kinases are expressed as either kinase domains or full length constructs; made in house
Method in brief: as §1

Ret-1 = target: T7, Ret-1 (Homo sapiens, UniProt P07949); assay: Kinase inhibition assay (33P transfer), Ret; conditions: Table 6, Ret-1 kinase inhibition class
T7 construct: Kinases are expressed as either kinase domains or full length constructs; made in house

AKT = target: T8, AKT (Homo sapiens, UniProt Q9Y243); assay: Kinase inhibition assay (33P transfer), AKT; conditions: Table 2, kinase inhibition class; read-out: AKT3-1
T8 construct: Kinases are expressed as either kinase domains or full length constructs; made in house
T8 sequence (Q9Y243 whole entry, the tested form may be a part): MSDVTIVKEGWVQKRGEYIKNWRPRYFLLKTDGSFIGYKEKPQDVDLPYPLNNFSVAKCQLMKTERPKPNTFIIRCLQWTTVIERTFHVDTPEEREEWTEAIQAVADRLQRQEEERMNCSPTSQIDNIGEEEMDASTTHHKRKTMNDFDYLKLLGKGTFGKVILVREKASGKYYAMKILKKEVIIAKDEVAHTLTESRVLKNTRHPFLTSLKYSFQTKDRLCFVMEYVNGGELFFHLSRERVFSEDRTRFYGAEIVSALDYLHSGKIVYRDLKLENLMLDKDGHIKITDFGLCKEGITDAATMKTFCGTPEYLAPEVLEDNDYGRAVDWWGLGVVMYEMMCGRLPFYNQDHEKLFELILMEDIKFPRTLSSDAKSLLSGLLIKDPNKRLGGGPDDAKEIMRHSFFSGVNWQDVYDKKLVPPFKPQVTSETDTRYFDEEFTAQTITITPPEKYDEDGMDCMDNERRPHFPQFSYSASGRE
Method in brief: (§2)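 Radiometric readout: 33P incorporated into surface-bound poly(Glu,Tyr) 4:1 or poly(Arg,Ser) 3:1 is counted by liquid scintillation after a 0.5% phosphoric acid wash. Enzymes were GST or polyHis fusions (kinase domain or full length) from E. coli or High Five insect cells.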

Lck = target: T9, Lck (Homo sapiens, UniProt P06239); assay: Kinase inhibition assay (33P transfer), Lck; conditions: Table 3; read-out: Lck-1
T9 construct: Kinases are expressed as either kinase domains or full length constructs; made in house
T9 sequence (P06239 whole entry, species assumed, the tested form may be a part): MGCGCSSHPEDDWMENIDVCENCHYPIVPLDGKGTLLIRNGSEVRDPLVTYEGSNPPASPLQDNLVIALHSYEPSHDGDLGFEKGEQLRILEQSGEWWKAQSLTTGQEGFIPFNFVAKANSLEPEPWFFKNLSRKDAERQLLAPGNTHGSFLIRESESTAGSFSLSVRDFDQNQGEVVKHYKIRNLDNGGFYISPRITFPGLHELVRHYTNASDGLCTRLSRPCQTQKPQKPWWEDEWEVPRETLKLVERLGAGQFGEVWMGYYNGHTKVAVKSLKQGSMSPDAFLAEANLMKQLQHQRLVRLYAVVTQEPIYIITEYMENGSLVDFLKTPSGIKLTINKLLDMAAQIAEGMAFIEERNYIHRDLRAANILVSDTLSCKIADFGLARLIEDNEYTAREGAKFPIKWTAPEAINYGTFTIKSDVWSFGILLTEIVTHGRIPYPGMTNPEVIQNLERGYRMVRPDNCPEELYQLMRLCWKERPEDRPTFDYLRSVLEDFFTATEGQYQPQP
Method in brief: as §2

Hck-1 = target: T10, Hck-1 (Homo sapiens, UniProt P08631); assay: Kinase inhibition assay (33P transfer), Hck; conditions: Table 6, Hck-1 kinase inhibition class
T10 construct: Kinases are expressed as either kinase domains or full length constructs; made in house

EGFR = target: T11, EGFR (Homo sapiens, UniProt P00533); assay: Kinase inhibition assay (33P transfer), EGFR; conditions: Table 2, kinase inhibition class; read-out: EGFR-1
T11 construct: Kinases are expressed as either kinase domains or full length constructs; made in house
T11 sequence (P00533 25-1210, species assumed): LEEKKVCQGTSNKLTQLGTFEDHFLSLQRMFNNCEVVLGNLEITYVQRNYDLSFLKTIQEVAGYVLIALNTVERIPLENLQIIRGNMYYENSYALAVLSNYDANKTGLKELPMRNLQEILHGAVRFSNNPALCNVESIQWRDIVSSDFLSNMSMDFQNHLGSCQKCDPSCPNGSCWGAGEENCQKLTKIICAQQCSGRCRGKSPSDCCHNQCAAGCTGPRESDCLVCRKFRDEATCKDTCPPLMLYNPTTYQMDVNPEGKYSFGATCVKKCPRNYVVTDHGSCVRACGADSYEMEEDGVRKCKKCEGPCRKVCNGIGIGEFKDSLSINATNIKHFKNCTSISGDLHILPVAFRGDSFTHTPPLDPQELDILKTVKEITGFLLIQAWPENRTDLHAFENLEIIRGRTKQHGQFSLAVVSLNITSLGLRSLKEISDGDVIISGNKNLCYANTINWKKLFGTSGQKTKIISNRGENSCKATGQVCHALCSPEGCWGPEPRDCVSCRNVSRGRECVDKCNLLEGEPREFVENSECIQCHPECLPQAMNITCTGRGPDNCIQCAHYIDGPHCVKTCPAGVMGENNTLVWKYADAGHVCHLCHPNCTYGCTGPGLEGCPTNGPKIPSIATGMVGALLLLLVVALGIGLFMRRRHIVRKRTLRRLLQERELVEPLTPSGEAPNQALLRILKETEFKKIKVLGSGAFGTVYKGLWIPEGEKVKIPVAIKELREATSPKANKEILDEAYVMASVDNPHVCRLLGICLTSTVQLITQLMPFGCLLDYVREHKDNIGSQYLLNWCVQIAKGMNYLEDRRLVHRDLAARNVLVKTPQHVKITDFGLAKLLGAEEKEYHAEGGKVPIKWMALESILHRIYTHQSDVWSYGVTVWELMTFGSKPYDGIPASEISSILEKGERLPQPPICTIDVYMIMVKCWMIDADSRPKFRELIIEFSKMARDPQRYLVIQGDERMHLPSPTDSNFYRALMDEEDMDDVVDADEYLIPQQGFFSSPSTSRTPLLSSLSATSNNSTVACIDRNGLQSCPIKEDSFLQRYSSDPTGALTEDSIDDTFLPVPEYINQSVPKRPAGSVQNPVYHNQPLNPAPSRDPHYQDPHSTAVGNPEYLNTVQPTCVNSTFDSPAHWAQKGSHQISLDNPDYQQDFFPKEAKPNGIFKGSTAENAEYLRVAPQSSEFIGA
Method in brief: as §1

Src = target: T12, Src (Homo sapiens, UniProt P12931); assay: Kinase inhibition assay (33P transfer), Src; conditions: Table 6, Src-1 kinase inhibition class
T12 construct: Kinases are expressed as either kinase domains or full length constructs; made in house
Method in brief: as §1

ErbB4 = target: T13, ErbB4 (Homo sapiens, UniProt Q15303); assay: Kinase inhibition assay (33P transfer), ErbB4; conditions: read-out: ErbB4-1
T13 construct: Kinases are expressed as either kinase domains or full length constructs; made in house

ErbB2 = target: T14, ErbB2 (Homo sapiens, UniProt P04626); assay: Kinase inhibition assay (33P transfer), ErbB2; conditions: read-out: ErbB2-2
T14 construct: Kinases are expressed as either kinase domains or full length constructs; made in house
Method in brief: as §1

T1 sequence (P17948 27-1338, species assumed): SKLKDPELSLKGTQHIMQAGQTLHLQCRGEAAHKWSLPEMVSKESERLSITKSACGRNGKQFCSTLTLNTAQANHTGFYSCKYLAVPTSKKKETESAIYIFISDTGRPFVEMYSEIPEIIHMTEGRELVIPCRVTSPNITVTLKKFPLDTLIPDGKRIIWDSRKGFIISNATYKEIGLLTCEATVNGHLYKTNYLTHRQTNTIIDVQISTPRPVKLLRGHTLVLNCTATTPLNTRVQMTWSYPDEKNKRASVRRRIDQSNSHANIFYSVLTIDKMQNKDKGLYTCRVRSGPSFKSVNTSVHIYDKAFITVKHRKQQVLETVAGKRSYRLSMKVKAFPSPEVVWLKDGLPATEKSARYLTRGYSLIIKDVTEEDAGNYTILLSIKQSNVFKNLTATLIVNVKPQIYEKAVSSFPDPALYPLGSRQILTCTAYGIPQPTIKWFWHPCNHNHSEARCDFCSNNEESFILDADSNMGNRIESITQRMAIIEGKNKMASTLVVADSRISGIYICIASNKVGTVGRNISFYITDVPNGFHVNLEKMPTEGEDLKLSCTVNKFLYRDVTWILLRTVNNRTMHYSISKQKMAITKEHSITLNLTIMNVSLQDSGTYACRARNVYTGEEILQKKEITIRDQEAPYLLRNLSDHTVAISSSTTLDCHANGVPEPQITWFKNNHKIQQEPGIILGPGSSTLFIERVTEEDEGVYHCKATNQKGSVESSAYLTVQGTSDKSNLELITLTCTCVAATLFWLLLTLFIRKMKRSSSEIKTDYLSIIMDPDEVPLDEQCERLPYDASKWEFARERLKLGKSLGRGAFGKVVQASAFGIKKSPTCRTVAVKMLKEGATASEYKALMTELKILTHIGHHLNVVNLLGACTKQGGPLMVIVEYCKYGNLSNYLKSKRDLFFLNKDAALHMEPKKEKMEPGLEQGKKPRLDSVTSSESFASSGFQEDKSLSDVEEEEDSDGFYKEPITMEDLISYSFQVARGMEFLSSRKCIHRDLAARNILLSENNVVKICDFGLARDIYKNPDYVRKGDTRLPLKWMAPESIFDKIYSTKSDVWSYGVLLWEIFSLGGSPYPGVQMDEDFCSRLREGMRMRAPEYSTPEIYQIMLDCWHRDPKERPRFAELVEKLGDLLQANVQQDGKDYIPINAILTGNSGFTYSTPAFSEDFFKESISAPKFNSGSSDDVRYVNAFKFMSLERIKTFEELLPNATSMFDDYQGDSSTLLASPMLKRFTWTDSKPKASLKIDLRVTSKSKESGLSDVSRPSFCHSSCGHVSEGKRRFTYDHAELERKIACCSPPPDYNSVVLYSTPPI

Row | Compound | pIC50 (Flt-1) | pIC50 (Tek) | pIC50 (Itk) | pIC50 (Lyn) | pIC50 (FGFR1) | pIC50 (c-Met) | pIC50 (Ret-1) | pIC50 (AKT) | pIC50 (Lck) | pIC50 (Hck-1) | pIC50 (EGFR) | pIC50 (Src) | pIC50 (ErbB4) | pIC50 (ErbB2)
1 | COc1cc(Nc2ncnc(Nc3ccc(C(N)=O)cc3)n2)cc(OC)c1OC [Compound 33] | < 4.94 | < 4.94 | < 4.94 | 5.22 to 6.00 | 5.05 to 5.22 | < 4.94 | < 4.94 | < 4.94 | 4.94 to 5.05 | < 4.94 | < 4.94 | 5.22 to 6.00 |  | 
2 | COc1cc(Nc2ncnc(Nc3ccccc3C)n2)cc(OC)c1OC [Compound 67] | 4.91 to 5.02 | < 4.91 | < 4.91 | > 5.96 | < 4.91 | < 4.91 | < 4.91 | < 4.91 | 5.18 to 5.96 | < 4.91 | 5.02 to 5.18 | 5.18 to 5.96 |  | 
3 | NC(=O)c1cccc(Nc2ncnc(-n3c(N)nc4ccccc43)n2)c1 [Compound 395] | > 5.94 | 5.16 to 5.94 | 5.16 to 5.94 | 4.89 to 5.00 | > 5.94 | 5.16 to 5.94 |  | 4.89 to 5.00 | 5.00 to 5.16 | < 4.89 | < 4.89 | 4.89 to 5.00 | < 4.89 | 
4 | COc1cc(Nc2ncnc(-n3c(Nc4ccc(C(C)C)cc4)nc4ccccc43)n2)cc(OC)c1OC [Compound 388] | < 5.06 | < 5.06 | < 5.06 | 5.33 to 6.11 | 5.16 to 5.33 | < 5.06 |  | < 5.06 | 5.33 to 6.11 | < 5.06 | < 5.06 | < 5.06 | < 5.06 | 
5 | NC(=O)c1ccc(Nc2ncnc(-n3c(N)nc4ccccc43)n2)cc1 [Compound 396] | > 5.94 | 5.16 to 5.94 | > 5.94 | 5.16 to 5.94 | > 5.94 | 5.16 to 5.94 |  | 5.00 to 5.16 | 5.16 to 5.94 | 5.00 to 5.16 | 5.00 to 5.16 | < 4.89 | 5.16 to 5.94 | 
6 | COc1cc(Nc2ncnc(-n3c(Cl)nc4ccccc43)n2)cc(OC)c1OC [Compound 378] | 5.24 to 6.01 | 4.96 to 5.07 | < 4.96 | 5.24 to 6.01 | > 6.01 | 5.24 to 6.01 |  | < 4.96 | 5.07 to 5.24 | < 4.96 | < 4.96 | 5.07 to 5.24 | < 4.96 | 

More lines, now with the values ahead:

Row | pIC50 (Flt-1) | pIC50 (Tek) | pIC50 (Itk) | pIC50 (Lyn) | pIC50 (FGFR1) | pIC50 (c-Met) | pIC50 (Ret-1) | pIC50 (AKT) | pIC50 (Lck) | pIC50 (Hck-1) | pIC50 (EGFR) | pIC50 (Src) | pIC50 (ErbB4) | pIC50 (ErbB2) | Compound
7 | > 6.01 |  | < 4.96 | > 6.01 | < 4.96 | < 4.96 | < 4.96 | < 4.96 | > 6.01 | < 4.96 | > 6.01 | > 6.01 | < 4.96 |  | COc1cc(Nc2ncnc(Nc3ccc(F)c(Cl)c3)n2)cc(OC)c1OC [Compound 61]
8 | > 6.10 | 5.33 to 6.10 | 5.33 to 6.10 | > 6.10 | > 6.10 | 5.16 to 5.33 |  | < 5.05 | > 6.10 | < 5.05 | 5.05 to 5.16 | < 5.05 | 5.05 to 5.16 | 5.16 to 5.33 | COc1cc(Nc2ncnc(-n3c(Nc4ccc5[nH]ccc5c4)nc4ccccc43)n2)cc(OC)c1OC [Compound 376]
9 | > 6.00 |  | < 4.94 | 5.22 to 6.00 | 5.22 to 6.00 | 4.94 to 5.05 | 5.22 to 6.00 | < 4.94 | 5.22 to 6.00 | < 4.94 | 5.05 to 5.22 | 5.22 to 6.00 |  |  | COc1cc(Nc2ncnc(Nc3ccc(N(C)C)cc3)n2)cc(OC)c1OC [Compound 27]
10 | > 5.95 | < 4.90 | < 4.90 | 5.17 to 5.95 | 5.00 to 5.17 | < 4.90 | 5.17 to 5.95 | < 4.90 | 5.17 to 5.95 | < 4.90 | 5.17 to 5.95 | 5.17 to 5.95 |  | 5.17 to 5.95 | COc1cc(Nc2ncnc(Nc3ccccc3)n2)cc(OC)c1OC [Compound 91]
